From patent US8901118B2, “Compounds and methods for kinase modulation, and indications therefor” (Plexxikon Inc., priority 2010, dated 2014) come the findings set out here.

One assay has as its target Fms kinase (Homo sapiens, UniProt P07333). Put plainly: Fms kinase biochemical activity assay (AlphaScreen, biotin-(E4Y)10 phosphorylation). As to conditions: 100 μM ATP; read-out: Biochemical Inhibition IC50 Fms. Put shortly:
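AlphaScreen read-out (PY20 acceptor, streptavidin donor beads, EDTA stop) of biotin-(E4Y)10 phosphorylation, with IC50 taken from the concentration–signal curve. Reaction: 30 nM substrate, 100 μM ATP, 1 ng/well Fms, Hepes pH 7.5 with Mg2+/Mn2+, 5% DMSO, 20 min at 30 °C.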

For another assay, the target named is CYP3A4(BFC) (Homo sapiens, UniProt P08684). Put plainly: CYP3A4(BFC) inhibition. The class given is in vitro ADME. Conditions: CYP3A4, substrate BFC; read-out: Cyp IC50 3A4(BFC). In outline: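 This fluorescence assay tracks how test compounds reduce CYP3A4 turnover of BFC, with enzyme and substrate from BD Biosciences. A 10-point 1:1 dilution series in cofactor mix (1.3% NADPH Regeneration Solution A, 1.04% Solution B, 5% acetonitrile, 0.05% DMSO) was dispensed at 10 μL into 384 well plates, preincubated 10 minutes at 37° C, then incubated 30 min and read on a Tecan Safire 2.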
CYP3A4(BFC), sequence (P08684 whole entry): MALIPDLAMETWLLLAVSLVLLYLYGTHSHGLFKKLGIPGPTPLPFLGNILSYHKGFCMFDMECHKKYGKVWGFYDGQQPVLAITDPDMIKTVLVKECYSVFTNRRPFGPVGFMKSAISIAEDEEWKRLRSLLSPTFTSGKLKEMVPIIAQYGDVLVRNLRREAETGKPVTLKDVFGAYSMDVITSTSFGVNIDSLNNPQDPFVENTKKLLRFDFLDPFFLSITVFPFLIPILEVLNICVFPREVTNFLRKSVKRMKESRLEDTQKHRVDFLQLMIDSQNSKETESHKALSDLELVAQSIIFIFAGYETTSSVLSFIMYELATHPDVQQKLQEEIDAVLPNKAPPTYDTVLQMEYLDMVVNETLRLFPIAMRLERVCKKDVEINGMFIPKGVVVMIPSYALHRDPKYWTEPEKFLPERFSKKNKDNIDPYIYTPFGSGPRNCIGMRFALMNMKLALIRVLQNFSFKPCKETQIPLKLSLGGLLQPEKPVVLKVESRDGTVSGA

Fms kinase, sequence (P07333 20-972): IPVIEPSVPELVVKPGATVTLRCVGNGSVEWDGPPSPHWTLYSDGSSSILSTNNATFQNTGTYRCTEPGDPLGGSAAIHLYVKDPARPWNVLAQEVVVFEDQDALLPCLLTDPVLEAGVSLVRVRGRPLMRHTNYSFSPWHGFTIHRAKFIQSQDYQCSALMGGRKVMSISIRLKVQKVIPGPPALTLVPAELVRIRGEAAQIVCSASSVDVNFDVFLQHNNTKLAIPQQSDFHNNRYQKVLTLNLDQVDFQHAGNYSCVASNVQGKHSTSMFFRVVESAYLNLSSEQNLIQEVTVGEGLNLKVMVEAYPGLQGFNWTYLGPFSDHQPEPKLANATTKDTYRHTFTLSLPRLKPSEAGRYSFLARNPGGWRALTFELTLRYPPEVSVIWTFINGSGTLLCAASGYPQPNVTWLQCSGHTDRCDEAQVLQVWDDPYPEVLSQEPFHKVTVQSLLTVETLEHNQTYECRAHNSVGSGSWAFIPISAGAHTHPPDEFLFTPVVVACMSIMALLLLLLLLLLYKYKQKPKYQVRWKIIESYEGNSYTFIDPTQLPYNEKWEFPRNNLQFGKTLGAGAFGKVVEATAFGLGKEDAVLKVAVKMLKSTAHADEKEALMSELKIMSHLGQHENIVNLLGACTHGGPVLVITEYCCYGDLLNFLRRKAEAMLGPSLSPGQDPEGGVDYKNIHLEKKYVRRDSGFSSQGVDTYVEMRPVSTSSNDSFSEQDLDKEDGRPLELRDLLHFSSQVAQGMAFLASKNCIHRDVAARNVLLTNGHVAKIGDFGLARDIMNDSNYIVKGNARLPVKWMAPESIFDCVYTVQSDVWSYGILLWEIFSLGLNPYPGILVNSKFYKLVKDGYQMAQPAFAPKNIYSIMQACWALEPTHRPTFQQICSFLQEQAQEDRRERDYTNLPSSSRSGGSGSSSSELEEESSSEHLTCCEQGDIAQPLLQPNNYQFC

On to `Clc1cnc2[nH]cc(Cc3cnc(NC4CCC4)nc3)c2c1` [Compound P-3007, [5-(5-Chloro-1H-pyrrolo[2,3-b]pyridin-3-ylmethyl)-pyrimidin-2-yl]-cyclobutyl-amine], for which, on Fms kinase, the IC50 is < 1000 nM.
Turning to `Cc1cnc2[nH]cc(Cc3ccc(NC4CCCCC4)nc3F)c2c1` [Compound P-3008, cyclohexyl-[6-fluoro-5-(5-methyl-1H-pyrrolo[2,3-b]pyridin-3-ylmethyl)-pyridin-2-yl]-amine], the IC50 at Fms kinase is < 100 nM; on CYP3A4(BFC), 5000 to 10000 nM.
Take `O=C(c1ccc(Nc2ccc(C3CC3)nc2)nc1F)c1c[nH]c2ncnc(C3CC3)c12` [Compound P-4040, [6-(6-Cyclopropyl-pyridin-3-ylamino)-2-fluoro-pyridin-3-yl]-(4-cyclopropyl-7H-pyrrolo[2,3-d]pyrimidin-5-yl)-methanone]: the IC50 on Fms kinase is < 100 nM.
Take `Fc1nc(Nc2ccc(C3CC3)nc2)ccc1Cc1c[nH]c2ncnc(C3CC3)c12` [Compound P-4041, (6-Cyclopropyl-pyridin-3-yl)-[5-(4-cyclopropyl-7H-pyrrolo[2,3-d]pyrimidin-5-ylmethyl)-6-fluoro-pyridin-2-yl]-amine]: the figures for the IC50 at Fms kinase and on CYP3A4(BFC) were < 100 nM and > 10000 nM, respectively.
As to `Nc1ncnc2[nH]cc(C(=O)c3ccc(NC4CCC(F)(F)CC4)nc3Cl)c12` [Compound P-4046, (4-amino-7H-pyrrolo[2,3-d]pyrimidin-5-yl)-[2-chloro-6-[(4,4-difluorocyclohexyl)amino]-3-pyridyl]methanone], on Fms kinase, the IC50 was < 100 nM.
`CC(C)=CNc1ncnc2[nH]cc(C(=O)c3ccc(NC4CCC(F)(F)CC4)nc3Cl)c12` [Compound P-4047, [2-chloro-6-[(4,4-difluorocyclohexyl)amino]-3-pyridyl]-[4-(2-methylprop-1-enylamino)-7H-pyrrolo[2,3-d]pyrimidin-5-yl]methanone]: the IC50 was > 1000 nM at Fms kinase and > 10000 nM on CYP3A4(BFC).
The corresponding values for `Nc1ncnc2[nH]cc(C(=O)c3ccc(Nc4ccc(C5CC5)nc4)nc3F)c12` [Compound P-4048, (4-amino-7H-pyrrolo[2,3-d]pyrimidin-5-yl)-[6-[(6-cyclopropyl-3-pyridyl)amino]-2-fluoro-3-pyridyl]methanone] are < 10 nM and > 10000 nM.
On the same counts, the results for `CC(C)(O)CNc1ncnc2[nH]cc(C(=O)c3ccc(Nc4ccc(C5CC5)nc4)nc3F)c12` [Compound P-4049, [6-[(6-cyclopropyl-3-pyridyl)amino]-2-fluoro-3-pyridyl]-[4-[(2-hydroxy-2-methyl-propyl)amino]-7H-pyrrolo[2,3-d]pyrimidin-5-yl]methanone] are < 10 nM and > 10000 nM.
The corresponding values for `CCNc1ncnc2[nH]cc(C(=O)c3ccc(NC4CCC(F)(F)CC4)nc3Cl)c12` [Compound P-4050, [2-chloro-6-[(4,4-difluorocyclohexyl)amino]-3-pyridyl]-[4-(ethylamino)-7H-pyrrolo[2,3-d]pyrimidin-5-yl]methanone] are < 1000 nM and > 10000 nM.
On to `CCNc1ncnc2[nH]cc(C(=O)c3cnc(NC4CCC(F)(F)CC4)c(F)c3)c12` [Compound P-4051, [6-[(4,4-difluorocyclohexyl)amino]-5-fluoro-3-pyridyl]-[4-(ethylamino)-7H-pyrrolo[2,3-d]pyrimidin-5-yl]methanone], for which the IC50 was < 1000 nM at Fms kinase and > 10000 nM at CYP3A4(BFC).
Regarding `O=C(c1cnc(NC2CCC(F)(F)CC2)c(F)c1)c1c[nH]c2ncnc(NCC(F)(F)F)c12` [Compound P-4052, [6-[(4,4-difluorocyclohexyl)amino]-5-fluoro-3-pyridyl]-[4-(2,2,2-trifluoroethylamino)-7H-pyrrolo[2,3-d]pyrimidin-5-yl]methanone], the IC50 was < 1000 nM on Fms kinase and > 10000 nM at CYP3A4(BFC).
The corresponding values for `O=C(c1cnc(NC2CCC(F)(F)CC2)c(F)c1)c1c[nH]c2ncnc(NC3CC3)c12` [Compound P-4053, [4-(cyclopropylamino)-7H-pyrrolo[2,3-d]pyrimidin-5-yl]-[6-[(4,4-difluorocyclohexyl)amino]-5-fluoro-3-pyridyl]methanone] are < 10 nM and > 10000 nM.
On the same counts, the results for `CNc1ncnc2[nH]cc(C(=O)c3cnc(NC4CCC(F)(F)CC4)c(F)c3)c12` [Compound P-4054, [6-[(4,4-difluorocyclohexyl)amino]-5-fluoro-3-pyridyl]-[4-(methylamino)-7H-pyrrolo[2,3-d]pyrimidin-5-yl]methanone] are < 10 nM and > 10000 nM.
